One test addresses T1, GPR6 (Homo sapiens, UniProt P46095).
T1 construct: expressed in transfected cells; host or cells: CHO cells
The experiment in a line: GPR6 antagonist functional cAMP assay (LANCE Ultra cAMP TR-FRET, CHO cells stably expressing GPR6). The test is classed as cell-based. An outline of the steps: (§1)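 We measure cAMP by TR-FRET (665 nm) in cells held in glucose-containing Krebs-Ringer buffer with BSA and a PDE inhibitor, after a 45 min, 37 °C compound incubation. IC50s derive from a four-parameter logistic fit.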

A further test deals with T2, GPR3 (Homo sapiens, UniProt P46089).
T2 construct: expressed in transfected cells; host or cells: CHO cells
T2 sequence (P46089 whole entry, species assumed): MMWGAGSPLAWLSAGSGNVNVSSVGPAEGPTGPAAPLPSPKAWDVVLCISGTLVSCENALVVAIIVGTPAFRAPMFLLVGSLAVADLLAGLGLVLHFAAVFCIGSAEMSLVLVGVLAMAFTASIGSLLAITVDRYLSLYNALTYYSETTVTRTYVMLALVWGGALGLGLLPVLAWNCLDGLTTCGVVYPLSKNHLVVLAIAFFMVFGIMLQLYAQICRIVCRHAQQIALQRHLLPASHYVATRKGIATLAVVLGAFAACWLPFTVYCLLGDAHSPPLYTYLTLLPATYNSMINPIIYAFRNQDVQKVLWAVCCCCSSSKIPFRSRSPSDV
The experiment in a line: GPR3 antagonist functional cAMP assay (LANCE Ultra cAMP TR-FRET, CHO cells stably expressing GPR3). The test is classed as cell-based. Summed up: as §1
(In general: Changes in cAMP serve as a functional read-out for many G protein-coupled receptors.)

[1] abbreviates: CHO cells stably expressing GPR6, cAMP assay (Example 24).
Setting [2] is: CHO cells stably expressing GPR3, cAMP assay (Example 24).
The mark [3] stands for this setting: CHO cells stably expressing GPR6, cAMP assay.
[4] abbreviates: CHO cells stably expressing GPR3, cAMP assay.

Molecules are shown by their SMILES.

Broadly, the IC50 is the concentration at which inhibition is half-maximal. The low end stands for higher potency, the high end for lower potency.

T1 sequence (P46095 whole entry): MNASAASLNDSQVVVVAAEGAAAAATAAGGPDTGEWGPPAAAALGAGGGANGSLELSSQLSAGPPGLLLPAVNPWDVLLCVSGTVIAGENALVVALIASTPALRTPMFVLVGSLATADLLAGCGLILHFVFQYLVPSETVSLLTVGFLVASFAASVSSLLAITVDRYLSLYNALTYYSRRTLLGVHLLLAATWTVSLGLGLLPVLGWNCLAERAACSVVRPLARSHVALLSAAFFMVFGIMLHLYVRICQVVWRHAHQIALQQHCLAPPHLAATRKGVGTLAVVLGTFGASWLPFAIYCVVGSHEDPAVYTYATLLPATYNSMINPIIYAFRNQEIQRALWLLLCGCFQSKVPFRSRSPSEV

In the case of `CO[C@@H](CO)c1cc2nc(N3CCC(Oc4ccc(F)cc4F)CC3)c(-c3cnn(C)c3)nc2cn1` (single isomer, unassigned) [Compound 640], the IC50 was in the range of 100 to 1000 nM on GPR6 (procedure of Example 24) and 1000 to 30000 nM on GPR3 (procedure of Example 24).
Take `Clc1ccc(Cl)c(CN2CCN(c3nc4cnccc4nc3-c3ncc[nH]3)CC2)c1` [Compound 64, 1-[(2,5-dichlorophenyl)methyl]-4-[2-(1H-imidazol-2-yl)pyrido[3,4-b]pyrazin-3-yl]piperazine]: the IC50 against GPR6 (setting [1]) and at GPR3 (setting [2]) was 100 to 1000 nM each time.
As for `CCOc1ccc(OC2CCN(c3nc4c(nc3-c3cnn(C)c3)CN(C(C)=O)CC4)CC2)c(F)c1` [Compound 504, 1-{2-[4-(4-ethoxy-2-fluorophenoxy)-1-piperidyl]-3-(1-methyl-4-pyrazolyl)-5,6,7,8-tetrahydro-1,4,6-triaza-6-naphthyl}-1-ethanone], the IC50 lay in the range of 100 to 1000 nM against GPR6 (setting [3]) and 1000 to 30000 nM against GPR3 (setting [4]).
On to `Fc1ccc(OC2CCN(c3nc4c(nc3-c3cn[nH]c3)CNCC4)CC2)c(F)c1` [Compound 124, 4-(2,4-difluorophenoxy)-1-[3-(1H-pyrazol-4-yl)-5H,6H,7H,8H-pyrido[3,4-b]pyrazin-2-yl]piperidine], for which the IC50 against GPR6 (setting [1]) and at GPR3 (setting [2]) was 1000 to 30000 nM throughout.
On to `CC(C)(O)[C@@H](O)c1cc2nc(N3CCN(Cc4cc(F)ccc4F)CC3)c(-c3cnn(CF)c3)nc2cn1` (single isomer, unassigned) [Compound 725], for which the IC50 is 100 to 1000 nM against GPR6 (procedure of Example 24) and at least 30000 nM on GPR3 (procedure of Example 24).
For the molecule `CC(=O)N1CCc2nc(N3CCC(Oc4cc(Cl)c(F)cc4F)CC3)c(-c3cnn(C)c3)nc2C1` [Compound 458, 1-{2-[4-(5-chloro-2,4-difluorophenoxy)piperidin-1-yl]-3-(1-methyl-1H-pyrazol-4-yl)-5H,6H,7H,8H-pyrido[3,4-b]pyrazin-6-yl}ethan-1-one], the values for the IC50 against GPR6 (setting [1]) and on GPR3 (setting [2]) were 100 to 1000 nM and 1000 to 30000 nM, respectively.
`CC(=O)N1CCc2nc(N3CCC(C(C)(O)c4ccc(F)cc4F)CC3)c(-c3cnn(C)c3)nc2C1` (stereo not drawn) [Compound 558, 1-(2-{4-[1-(2,4-difluorophenyl)-1-hydroxyethyl]-1-piperidyl}-3-(1-methyl-4-pyrazolyl)-5,6,7,8-tetrahydro-1,4,6-triaza-6-naphthyl)-1-ethanone]: the IC50 fell in the range of 1000 to 30000 nM at GPR6 (setting [3]) and 100 to 1000 nM against GPR3 (setting [4]).
For the molecule `CCn1cc(-c2nc3c(nc2N2CCC(Oc4ccc(F)cc4F)CC2)CCN(C(=O)C2COCCO2)C3)cn1` (stereo not drawn) [Compound 474, 4-(2,4-difluorophenoxy)-1-[6-(1,4-dioxane-2-carbonyl)-3-(1-ethyl-1H-pyrazol-4-yl)-5H,6H,7H,8H-pyrido[3,4-b]pyrazin-2-yl]piperidine], the values for the 50% inhibitory concentration (IC50) at GPR6 (setting [1]) and against GPR3 (setting [2]) were below 100 nM and 1000 to 30000 nM, respectively.
As to `CC(=O)N1CCc2nc(N3CCN(Cc4ccccc4Cl)CC3)c(-c3cnn(C)c3)nc2C1` [Compound 507, 1-(2-{4-[(o-chlorophenyl)methyl]-1-piperazinyl}-3-(1-methyl-4-pyrazolyl)-5,6,7,8-tetrahydro-1,4,6-triaza-6-naphthyl)-1-ethanone], the figures for the IC50 at GPR6 (setting [3]) and on GPR3 (setting [4]) were 100 to 1000 nM and 1000 to 30000 nM, respectively.
With `Cn1cc(-c2nc3cnccc3nc2N2CCN(CC3CCOCC3)CC2)cn1` [Compound 242, 1-[3-(1-methyl-1H-pyrazol-4-yl)pyrido[3,4-b]pyrazin-2-yl]-4-[(oxan-4-yl)methyl]piperazine], the IC50 against GPR6 (setting [1]) was at least 30000 nM; on GPR3 (setting [2]), 1000 to 30000 nM.
`CC(=O)N1CCc2nc(N3CCCC(Oc4ccccc4F)C3)c(-c3cnn(C)c3)nc2C1` (stereo not drawn) [Compound 336, 1-{2-[3-(2-fluorophenoxy)piperidin-1-yl]-3-(1-methyl-1H-pyrazol-4-yl)-5H,6H,7H,8H-pyrido[3,4-b]pyrazin-6-yl}ethan-1-one]: the IC50 at GPR6 (procedure of Example 24) was at least 30000 nM; at GPR3 (procedure of Example 24), 100 to 1000 nM.
For `Cn1cc(-c2nc3cnc([C@@H](O)C(C)(C)O)cc3nc2N2CCC(Oc3ccc(F)cc3F)CC2)cn1` (single isomer, unassigned) [Compound 379, (Rel-R)-1-(2-(4-(2,4-difluorophenoxy)piperidin-1-yl)-3-(1-methyl-1H-pyrazol-4-yl)pyrido[3,4-b]pyrazin-7-yl)-2-methylpropane-1,2-diol], the IC50 against GPR6 (setting [1]) is 100 to 1000 nM; against GPR3 (setting [2]), 1000 to 30000 nM.
For the molecule `CCn1cc(-c2nc3c(nc2N2CCC(Oc4ccc(F)cc4F)CC2)CCN(C(=O)N(C)C)C3)cn1` [Compound 300, 2-[4-(2,4-difluorophenoxy)piperidin-1-yl]-3-(1-ethyl-1H-pyrazol-4-yl)-N,N-dimethyl-5H,6H,7H,8H-pyrido[3,4-b]pyrazine-6-carboxamide], the half-inhibitory concentration (IC50) on GPR6 (procedure of Example 24) was below 100 nM; against GPR3 (procedure of Example 24) it was 1000 to 30000 nM.
With `COc1ccc(CN2CCN(c3nc4c(nc3-c3cnn(C)c3)CN(C(C)=O)CC4)CC2)c(OC)c1` [Compound 322, 1-(2-{4-[(2,4-dimethoxyphenyl)methyl]piperazin-1-yl}-3-(1-methyl-1H-pyrazol-4-yl)-5H,6H,7H,8H-pyrido[3,4-b]pyrazin-6-yl)ethan-1-one], the IC50 at GPR6 (procedure of Example 24) was at least 30000 nM; at GPR3 (procedure of Example 24) it was 1000 to 30000 nM.
Consider `COc1cc2nc(N3CCC(Oc4ccc(F)cc4F)CC3)c(-c3cnn(C)c3)nc2cn1` [Compound 410, 2-(4-(2,4-difluorophenoxy)piperidin-1-yl)-7-methoxy-3-(1-methyl-1H-pyrazol-4-yl)pyrido[3,4-b]pyrazine], for which the IC50 against GPR6 (setting [1]) and against GPR3 (setting [2]) was 1000 to 30000 nM each time.
In the case of `CC(=O)N1CCc2nc(N3CCC(=Cc4ccc(F)cc4F)CC3)c(-c3cnn(C)c3)nc2C1` [Compound 542, 1-(2-(4-(2,4-difluorobenzylidene)piperidin-1-yl)-3-(1-methyl-1H-pyrazol-4-yl)-7,8-dihydropyrido[3,4-b]pyrazin-6(5H)-yl)ethan-1-one], the figures for the IC50 on GPR6 (setting [3]) and against GPR3 (setting [4]) were below 100 nM and 100 to 1000 nM, respectively.
In the case of `CC(=O)N1CCc2nc(N3CCN(C(c4ccccc4)C(F)(F)F)CC3)c(-c3cnn(C)c3)nc2C1` (stereo not drawn) [Compound 730, 1-{3-(1-methyl-4-pyrazolyl)-2-[4-(2,2,2-trifluoro-1-phenylethyl)-1-piperazinyl]-5,6,7,8-tetrahydro-1,4,6-triaza-6-naphthyl}-1-ethanone], the IC50 at GPR6 (procedure of Example 24) and against GPR3 (procedure of Example 24) was 1000 to 30000 nM each time.
Regarding `COCC(C)(O)c1cc2nc(-c3cnn(C)c3)c(N3CCC(Oc4ccc(F)cc4F)CC3)nc2cn1` (stereo not drawn) [Compound 652, 2-{3-[4-(2,4-difluorophenoxy)-1-piperidyl]-2-(1-methyl-4-pyrazolyl)-1,4,6-triaza-7-naphthyl}-1-methoxy-2-propanol], the IC50 was below 100 nM on GPR6 (procedure of Example 24) and 1000 to 30000 nM on GPR3 (procedure of Example 24).
The corresponding values for `CC(C)(O)[C@@](C)(O)c1cc2nc(N3CCN(Cc4ccc(F)cc4F)CC3)c(-c3cnn(C4CC4)c3)nc2cn1` (single isomer, unassigned) [Compound 667] are 100 to 1000 nM and 1000 to 30000 nM.
On the same counts, the results for `CCn1cc(-c2nc3cnc(CC(C)(C)O)cc3nc2N2CCC(Oc3ccc(F)cc3F)CC2)cn1` [Compound 706, 1-{2-[4-(2,4-difluorophenoxy)-1-piperidyl]-3-(1-ethyl-4-pyrazolyl)-1,4,6-triaza-7-naphthyl}-2-methyl-2-propanol] are 100 to 1000 nM and 1000 to 30000 nM.
Regarding `CCOC(=O)N1CCc2nc(N3CCC(Oc4ccc(F)cc4F)CC3)c(-c3cnn(CC)c3)nc2C1` [Compound 299, ethyl 2-[4-(2,4-difluorophenoxy)piperidin-1-yl]-3-(1-ethyl-1H-pyrazol-4-yl)-5H,6H,7H,8H-pyrido[3,4-b]pyrazine-6-carboxylate], the IC50 is below 100 nM on GPR6 (procedure of Example 24) and 1000 to 30000 nM against GPR3 (procedure of Example 24).
The corresponding values for `CC(C)(O)[C@@H](O)c1cc2nc(N3CCN(Cc4ccccc4F)CC3)c(-c3cnn(CF)c3)nc2cn1` (single isomer, unassigned) [Compound 647] are below 100 nM and 1000 to 30000 nM.
On the same counts, the results for `CC(C)(O)[C@](C)(O)c1cc2nc(-c3cnn(CF)c3)c(N3CCN(Cc4ccc(F)cc4F)CC3)nc2cn1` (single isomer, unassigned) [Compound 712] are 100 to 1000 nM and 1000 to 30000 nM.
With `CC(=O)N1CCC(c2nc3c(nc2N2CCC(Oc4ccc(F)cc4F)CC2)CCN(C(C)=O)C3)CC1` [Compound 91, 1-(4-(6-acetyl-2-(4-(2,4-difluorophenoxy)piperidin-1-yl)-5,6,7,8-tetrahydropyrido[3,4-b]pyrazin-3-yl)piperidin-1-yl)ethan-1-one], the IC50 at GPR6 (setting [1]) and against GPR3 (setting [2]) was 1000 to 30000 nM throughout.
As for `CC(=O)N1CCc2nc(N3CCC(Oc4ccc(F)cc4F)CC3)c(C3CC3CO)nc2C1` (stereo not drawn) [Compound 489, 1-(2-(4-(2,4-difluorophenoxy)piperidin-1-yl)-3-(2-(hydroxymethyl)cyclopropyl)-7,8-dihydropyrido[3,4-b]pyrazin-6(5H)-yl)ethan-1-one], the IC50 against GPR6 (setting [3]) is 100 to 1000 nM; against GPR3 (setting [4]) it was 1000 to 30000 nM.
`CC(C)S(=O)(=O)N1CCc2nc(N3CCC(Oc4ccc(F)cc4F)CC3)c(-c3cn[nH]c3)nc2C1` [Compound 150, 4-(2,4-difluorophenoxy)-1-[6-(propane-2-sulfonyl)-3-(1H-pyrazol-4-yl)-5H,6H,7H,8H-pyrido[3,4-b]pyrazin-2-yl]piperidine]: the results for the IC50 against GPR6 (setting [1]) and at GPR3 (setting [2]) were below 100 nM and 1000 to 30000 nM, respectively.
The corresponding values for `O=C(CN1CCOCC1)N1CCc2nc(N3CCC(Oc4ccc(F)cc4F)CC3)c(-c3cnn(C4CCCCO4)c3)nc2C1` (stereo not drawn) [Compound 202, 1-{2-[4-(2,4-difluorophenoxy)piperidin-1-yl]-3-[1-(oxan-2-yl)-1H-pyrazol-4-yl]-5H,6H,7H,8H-pyrido[3,4-b]pyrazin-6-yl}-2-(morpholin-4-yl)ethan-1-one] are 1000 to 30000 nM and 1000 to 30000 nM.

The record behind these values is patent publication US20260042755A1, “GPR6 INVERSE AGONISTS” (MapLight Therapeutics, Inc., priority 2022, published 2026).
